Non-standard residues stand in square brackets, D forms with d. Residues, ends and D or L forms follow the SMILES beside them. Tle = CC(C)(C)[C@H](N)C(=O)O
Tests used:
[1] = target: T1, Protein S (Homo sapiens, UniProt P07225); assay: LANCE IC50 assay (competition TR-FRET) with tracer JBS0684; format: binding; conditions: Table 4, multiple substitutions in JBS2572; read-out: LANCE IC50
T1 sequence (P07225 41-676 limits assumed): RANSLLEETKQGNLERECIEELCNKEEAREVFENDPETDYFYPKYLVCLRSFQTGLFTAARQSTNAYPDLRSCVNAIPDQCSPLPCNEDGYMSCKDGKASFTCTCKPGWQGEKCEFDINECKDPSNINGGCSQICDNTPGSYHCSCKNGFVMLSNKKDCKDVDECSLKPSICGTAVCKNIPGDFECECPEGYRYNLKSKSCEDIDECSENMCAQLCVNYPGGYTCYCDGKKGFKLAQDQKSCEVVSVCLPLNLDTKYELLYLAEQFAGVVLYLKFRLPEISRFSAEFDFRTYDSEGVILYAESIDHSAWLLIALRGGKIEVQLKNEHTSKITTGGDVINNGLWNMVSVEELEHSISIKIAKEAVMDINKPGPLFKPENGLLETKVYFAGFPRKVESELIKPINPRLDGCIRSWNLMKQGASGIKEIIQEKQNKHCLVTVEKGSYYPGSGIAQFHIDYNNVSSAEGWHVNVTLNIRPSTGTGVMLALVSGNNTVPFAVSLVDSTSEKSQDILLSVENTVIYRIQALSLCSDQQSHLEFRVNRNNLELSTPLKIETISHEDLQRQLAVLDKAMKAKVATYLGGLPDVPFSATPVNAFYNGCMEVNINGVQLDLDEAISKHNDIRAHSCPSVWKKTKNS
Experimental: Peptides also were characterized in a competition, homogenous europium-based TR-FRET assay (LANCE IC50 assay) using JBS0684 as a tracer (i.e., competitor for Protein S binding). The following reagents were mixed together in a Perkin-Elmer ProxiPlate MTP well (indicated concentration is the final concentration): Eu-labeled Protein S (10 nM), Ulight™-labeled Streptavidin (100 nM), tracer (JBS0684 (300 nM)), and peptide (titrated in three-fold dilution steps). The final volume was 50 μl/well. The reaction mix was incubated for 1 hour at room temperature, then the fluorescence emission at 665 nm was recorded on a multi-mode reader (SpectraMax® M5, Molecular Devices) using the following instrument settings: Ex 340 nm, Em 665 nm, delay 50 μsec, integration 100 μsec, reads 100. Binding of tracer peptides to soluble europium-labeled Protein S was detected by Streptavidin labeled with an acceptor fluorophor (ULight™). Inhibition of tracer-binding to Protein S by a non-biotinylated peptide results in a decrease of TR-FRET between the Eu-labeled Protein S and ULight™-labeled Streptavidin. IC50 values were obtained from peptide titration curves at constant tracer concentration using non-linear regression of the fluorescence emission signals at 665 nm.

[2] = target: T2, Protein S/APC cofactor activity (Homo sapiens, UniProt P07225); assay: CAT assay in pooled normal plasma supplemented with 3 nM APC; format: biochemical; conditions: 6 pM TF, 15 μM phospholipids
T2 construct: host or cells: plasma
T2 sequence (P07225 41-676 limits assumed): T1 sequence (P07225 41-676 limits assumed)
Experimental: Peptides also were tested for improvement of Protein S/APC-dependent thrombin generation in hemophilic plasma using a CAT assay. Protein S enhances the anticoagulation of APC in plasma. The CAT assay quantifies the effect of Protein S on APC-mediated thrombin generation initiated via the extrinsic coagulation pathway (Nicolaes, Blood Coagul. Fibrinolysis, 8:28 (1997)). APC (35 nM) and Protein S (25 nM) was added to Protein 5-depleted plasma, and plasma samples were incubated with high titer heat inactivated anti-human FVIII plasma raised in goat (4490 BU/ml; Baxter BioScience, Vienna, Austria; 50 BU/ml final plasma concentration). Thrombin formation in plasma was followed by calibrated automated thrombography (CAT) in a Fluoroskan Ascent® reader (Thermo Labsystems, Helsinki, Finland) and quantified via the thrombin peak-height. Thrombin generation was determined at high tissue factor (TF) concentration in the absence and in the presence of APC at a concentration that reduces the peak height to 20%. The inhibitory effect of peptides described herein on the APC cofactor activity of Protein S (PS) in plasma was measured in FVIII-inhibited pooled normal plasma supplemented with APC. Complete (100%) Protein S/APC inhibition is the height of the thrombin peak without addition of APC. Lack of (0%) PS/APC inhibition correlates to the thrombin peak-height value with a certain amount of APC. Peptides were ranked by their normalized values in comparison to the mean of wild-type controls including SD at two defined peptide concentrations (EC50 and EC90). […] For the assays, pooled normal plasma was supplemented with 3 nM APC and triggered with 6 pM TF, and 15 μM phospholipids (DOPC/POPS 80/20). Stock APC was diluted with TF-PL-MIX to 24 nM (plasma concentration: 3 nM).

[3] = tested on: thrombin generation; assay: thrombin generation in non-human mammals; format: biochemical; conditions: cynomolgous monkey, marmoset monkey, pig, sheep, dog, rabbit, rat, and mouse
[4] = plasma stability in mouse plasma; format: in vitro ADME; conditions: 37° C.
Experimental: (§1) Affinity and activity of all 18 peptides was improved compared to parent JBS2572. […] Activity and stability were improved up to 1.5-fold. Plasma stability was determined in pooled normal human plasma and mouse plasma at 37° C.; exemplary results also are provided in Table 3.

[5] = target: T3, human full-length Protein S (Homo sapiens, UniProt P07225); assay: Biacore (surface plasmon resonance) on immobilized Protein S; format: binding; conditions: Biacore
T3 construct: using human full-length Protein S and human GAS6
T3 sequence (P07225 41-676 limits assumed): T1 sequence (P07225 41-676 limits assumed)
Experimental: Protein S affinity also was determined via Biacore (Biacore 3000 or Biacore T200) using human full-length Protein S and human GAS6. Briefly, 1000 RU of Protein S or GAS6 were immobilized on a CMS chip. In order to probe the kinetics of Protein S binding peptides to Protein S, the peptides were injected at various concentrations in a HBS-buffer containing 3 mM CaCl2 and 1% DMSO to the flow cell and allowed to interact with the immobilized proteins on the sensor chip. The chip could be regenerated with 4 M MgCl2 in HBS-buffer. Sensorgrams were fitted to a Langmuir binding model for the determination of kon and koff and the calculation of KD. Peptides were tested on their specificity to Protein S with peptide binding studies on the anti-target GAS6.

[6] = target: T4, C4BP/PS complex (Homo sapiens, UniProt P07225); assay: LANCE IC50 assay on preformed C4BP/PS complex; format: binding; conditions: two hours of incubation, 100 nM peptide
T4 sequence (P07225 41-676 limits assumed): T1 sequence (P07225 41-676 limits assumed)
Experimental: To investigate the effect of the peptides described herein on PS/C4BP complexes, a LANCE IC50 assay was established using methods similar to those described above. JBS2572 or JBS3216 was added to a preformed C4BP/PS complex. Changes in the complex concentration were followed by recording the TR-FRET signal. For both peptides, a time- and concentration-dependent dissociation of the C4BP/PS complex was observed. The IC50 of JBS3216 was 0.3 nM, and the IC50 of JBS2572 was 2 nM. The time-dependency of the complex reduction was similar for both peptides. After two hours of incubation in the presence of 100 nM JBS2572 or JBS3216, the C4BP/PS complex was reduced to 60% and 50%, respectively. In addition, binding of biotinylated JBS2572 to Protein S was inhibited by C4BP in the LANCE IC50 assay. Pull-down experiments where JBS2697 was coupled to streptavidin sepharose and incubated for one hour at room temperature with (a) Protein S (1.6 pmol) (b) C4BP (8.5 pmol) and (c) Protein S (1.6 pmol)+C4BP (8.5 pmol) supported the results from the modified LANCE IC50 assay.

[7] = plasma stability in pooled normal human plasma; format: in vitro ADME
Experimental: as §1

[8] = tested on: Protein S/APC dependent thrombin generation; assay: CAT assay in plasmas from individuals with severe hemophilia A; format: biochemical, human; conditions: plasma of severe hemophilia A patients

CSCC[C@H](NC(=O)[C@H](Cc1ccc(O)cc1)NC(=O)[C@H](Cc1c[nH]cn1)NC(=O)[C@H](CC(=O)O)NC(=O)[C@H](Cc1ccccc1)NC(=O)[C@H](CC(N)=O)NC(=O)[C@H](Cc1ccc(O)cc1)NC(=O)[C@H](CC(=O)O)NC(=O)[C@H](Cc1ccc(O)cc1)NC(=O)[C@H](Cc1c[nH]c2ccccc12)NC(=O)CNC(=O)[C@H](C)NC(=O)[C@H](CO)NC(=O)[C@@H](NC(=O)[C@H](CC(C)C)NC(=O)CNC(=O)[C@H](Cc1ccc(O)cc1)NC(C)=O)C(C)C)C(=O)N[C@@H](CCC(=O)O)C(=O)N[C@@H](Cc1ccccc1)C(=O)N[C@H](C(N)=O)[C@@H](C)O [JBS3196] (Ac-YGLVSAGWYDYNFDHYMEFT-NH2)
IC50 [1]: 2.2 nM | EC50 [2]: 155 nM

CSCC[C@H](NC(=O)[C@H](Cc1ccc(O)cc1)NC(=O)[C@@H](NC(=O)[C@H](CC(=O)O)NC(=O)[C@H](CC(N)=O)NC(=O)[C@H](CC(N)=O)NC(=O)[C@H](Cc1ccc(O)cc1)NC(=O)[C@H](CC(=O)O)NC(=O)[C@H](Cc1ccc(O)cc1)NC(=O)[C@H](Cc1c[nH]c2ccccc12)NC(=O)CNC(=O)[C@H](C)NC(=O)[C@H](CCC(=O)O)NC(=O)[C@@H](NC(=O)[C@H](CC(C)C)NC(=O)CNC(=O)[C@H](Cc1ccc(O)cc1)NC(C)=O)C(C)C)[C@@H](C)O)C(=O)N[C@@H](CCC(=O)O)C(=O)N[C@@H](Cc1ccccc1)C(=O)N[C@H](C(N)=O)[C@@H](C)O [JBS3201] (Ac-YGLVEAGWYDYNNDTYMEFT-NH2)
IC50 [1]: 1.9 nM | EC50 [2]: 127 nM

CSCC[C@H](NC(=O)[C@H](Cc1ccc(O)cc1)NC(=O)[C@H](Cc1c[nH]cn1)NC(=O)[C@H](CC(=O)O)NC(=O)[C@H](Cc1ccccc1)NC(=O)[C@H](CC(N)=O)NC(=O)[C@H](Cc1ccc(O)cc1)NC(=O)[C@H](CC(=O)O)NC(=O)[C@H](Cc1ccc(O)cc1)NC(=O)[C@H](Cc1c[nH]c2ccccc12)NC(=O)CNC(=O)[C@H](C)NC(=O)[C@H](CO)NC(=O)[C@@H](NC(=O)[C@H](CC(C)C)NC(=O)CNC(=O)[C@@H](NC(C)=O)[C@@H](C)O)C(C)(C)C)C(=O)N[C@@H](CCC(=O)O)C(=O)N[C@@H](Cc1ccccc1)C(=O)N[C@H](C(N)=O)[C@@H](C)O [JBS3203, Ac-TGL-Tle-SAGWYDYNFDHYMEFT-NH2] (Ac-TGL[Tle]SAGWYDYNFDHYMEFT-NH2)
IC50 [1]: 1.8 nM | EC50 [2]: 127 nM

CC(=O)N[C@@H](CCC(=O)O)C(=O)N[C@@H](Cc1ccc(O)cc1)C(=O)N[C@@H](Cc1ccc(O)cc1)C(=O)N[C@H](C(=O)N[C@@H](CO)C(=O)N[C@@H](C)C(=O)NCC(=O)N[C@@H](Cc1c[nH]c2ccccc12)C(=O)N[C@@H](Cc1ccc(O)cc1)C(=O)N[C@@H](CC(=O)O)C(=O)N[C@@H](Cc1ccc(O)cc1)C(=O)N[C@@H](CC(N)=O)C(=O)N[C@H](C(=O)N[C@@H](CC(=O)O)C(=O)N[C@H](C(=O)N[C@@H](Cc1ccc(O)cc1)C(=O)N[C@@H](Cc1ccc(O)cc1)C(=O)N[C@@H](CCC(=O)O)C(=O)N[C@@H](Cc1ccccc1)C(=O)N[C@@H](CCC(=O)O)C(N)=O)[C@@H](C)O)[C@@H](C)O)C(C)C [JBS3216] (Ac-EYYVSAGWYDYNTDTYYEFE-NH2)
thrombin generation in non-human mammals [3]: improved thrombin generation | Stability in mouse plasma; 4 hours [%] [4]: 66 ± 23% | koff ([5]; Table 3, read-out: koff): 0.000233 s⁻¹ | kon ([5]; Table 3, read-out: kon): 1.14e+06 M⁻¹ s⁻¹ | Kd ([5]; affinity-matured and modified peptides, read-out: KD): 0.2 nM | C4BP/PS complex reduced to [6]: 50% | binding activity remaining after incubation in human plasma ([7]; 24 hours of incubation in human plasma): 50% | Stability in human plasma; 6 hours [%] ([7]; pooled normal human plasma, 37° C., 6 hours): 80 ± 2% | EC50 [8]: 85 nM
